Where “and” joins values, the source holds several entries; their conditions need not be identical. Identical values can stand only once. Like-named read-outs stand apart in the source and are kept apart here.

The values below come from patent US11726102B2, “Particle-based drug detection method and device embodiments” (Washington State University, priority 2015, dated 2023).

The conditions of series [1]: at 25° C.; cited from earlier work.
The conditions of series [2]: cited from earlier work.
For series [3] the following is noted: cited from earlier work. The source holds these as a separate data set.
Series [4] in a line: THC on swab and in spit after cannabis inhalation (HPLC-MS). The note with it: saliva spit into collection vial after inhaling cannabis; one line per volunteer (V14, V27, V40).

For the molecule `CCCCCc1cc(O)c2c(c1)OC(C)(C)[C@@H]1CCC(C)=C[C@@H]21` [THC, Δ^9-tetrahydrocannabinol], the vapor pressure in series [1] is 4.6×10^−8 mmHg. In addition, the “time for the concentration in the body to build up to intoxication levels” value in series [2] (after being consumed) is reported as “at least 20 minutes”. Besides, in series [2] (after inhalation, estimated), the “psychoactive effects of THC felt after initial consumption” value is 2 to 4 h. Also, in series [3] (after inhalation, blood analyses by GC-MS or LC-MS), the “time THC can be detected in the blood” value is 3.5 to 5.5 h. Further, the “time detectable in human samples after use” value in series [3] (chronic users) is given as “up to 15 days”; in series [3] (occasional users), 1.3 days. Moreover, in series [4], the “THC in Spit” value was 2110.1 ng and 2259.2 ng and 129.6 ng.
